In US5202348A, “Thiarubrine antifungal agents” (The University of British Columbia, priority 1990, dated 1993):
Where two headings read alike, the source gives them in different places.

Tests used:
Format in all cases: cell-based
Acinetobacter = assay: Minimal inhibitory concentration, agar dilution method
Experimental: (§1) Results were obtained by agar dilution method. Mueller Hinton agar plates (pH - 7.4) with different doses of ThD were inoculated with 10^4 cfu/spot and incubated 21 hours at 34°. MIC is the lowest concentration with no growth.

Aspergillus = assay: as above; details: 21 h
Experimental: as §1

Candida pseudotropicalis = assay: as above; details: Kluyveromyces marxianus, 21 h; No. 10
Experimental: as §1

Candida = assay: as above; details: 21 h
Experimental: as §1

Cryptococcus neoformans = assay: as above; details: 21 h, No. 9, F548
Experimental: as §1

Enterobacter aerogenes = assay: as above; details: Klebsiella aerogenes, ATCC35029, 21 h; No. 6, ATCC 35029
Experimental: as §1

Enterobacter cloacoe = assay: as above
Experimental: as §1

Enterobacter sp. = assay: as above; details: 21 h, No. 26, strain 9E7
Experimental: as §1

[1] = system: Enterococcus (gentamycin res.); assay: as above; details: 21 h, read-out: Minimal Inhibitory Concentration
Experimental: as §1

Enterococcus faecalis = assay: as above; details: 21 h
Experimental: as §1

Escherichia coli = assay: as above; details: ATCC25992, 21 h, read-out: Minimal Inhibitory Concentration
Experimental: as §1

Klebsiella pneumoniae = assay: as above; details: ATCC33495, 21 h, No. 7, ATCC 33495
Experimental: as §1

Klebsiella sp. = assay: as above; details: 21 h, No. 31
Experimental: as §1

Listeria monocytogenes = assay: as above
Experimental: as §1

Pseudomonas aeruginosa = assay: as above
Experimental: as §1

Serratia marscenes = assay: as above; details: 21 h, No. 27, strain 3A3
Experimental: as §1

Staphylococcus aureus = assay: as above; details: for MIC: Staphylococcus aureus, read-out: Minimal Inhibitory Concentration
Experimental: as §1

Staphylococcus epidermis = assay: as above; details: ATCC29972, 21 h, No. 8, ATCC 29972
Experimental: as §1

Streptococcus faecalis = assay: as above; details: Enterococcus faecalis, ATCC29212, 21 h; No. 2, ATCC 29212
Experimental: as §1

Zanthomonas maltophilia = assay: as above; details: 21 h; No. 15, strain 3E6
Experimental: as §1

C. albicans = assay: Decomposition of ThD in 95% ethanol in -20° C. (LC50 on C. albicans); details: Candida albicans
Excerpt: Data on degradation of Thiarubrine D (ThD) expressed as changes of concentration required to inhibit growth of C. albicans in 50% during 24 hrs. exposure (Lc50 24 hrs.).

CC#CC1=CC=C(C#CC#CC2CO2)SS1 (stereo not shown) [Thiarubrine D]
0.007 µg/mL: IC50 (C. albicans; 0 h, 0 days)
0.017 µg/mL: IC50 (C. albicans; 504 h, 21 days)
0.008 µg/mL: MIC (Candida; No. 32, strain F617)
1,000 ng/ml: Minimal Inhibitory Concentration (Acinetobacter; No. 18, strain 6C10) | Minimal Inhibitory Concentration (Enterobacter cloacoe; No. 20, strain 9E5)
0.032 µg/mL: MIC (Aspergillus; No. 21, strain 05)
> 10 µg/mL: MIC (Pseudomonas aeruginosa; 21 h, No. 12, strain 141) | MIC (Pseudomonas aeruginosa; 21 h, No. 13, strain 205)
0.016 µg/mL: MIC (Candida; No. 22, strain 01) | MIC (Candida; No. 23, strain 02) | MIC (Candida; No. 25, strain R4197)
1 µg/mL: MIC (Acinetobacter; Acinetobacter, 21 h, No. 17, strain C42) | MIC (Enterobacter cloacoe; Enterobacter, 21 h, No. 19, strain 1A5) | MIC (Enterococcus faecalis; No. 35, strain 207) | MIC (Escherichia coli) | MIC (Klebsiella sp.)
0.064 µg/mL: MIC (Aspergillus; No. 34, strain F604) | MIC (Candida; No. 24, strain 03) | MIC (Cryptococcus neoformans)
10,000 ng/ml: Minimal Inhibitory Concentration (Listeria monocytogenes; No. 29, strain 301) | Minimal Inhibitory Concentration (Staphylococcus aureus; No. 16, strain B4287 (metacylliu res.))
0.01 µg/mL: MIC [1]
10 µg/mL: MIC (Candida pseudotropicalis) | MIC (Enterobacter aerogenes) | MIC (Enterobacter sp.) | MIC (Enterococcus faecalis; No. 30, strain 1A3) | MIC (Klebsiella pneumoniae) | MIC (Listeria monocytogenes; Listeria monocytogenes, 21 h, No. 28, strain 106) | MIC (Pseudomonas aeruginosa; 21 h, No. 14, strain 3E5) | MIC (Pseudomonas aeruginosa; ATCC27853, 21 h, No. 4, ATCC 27853) | MIC (Serratia marscenes) | MIC (Staphylococcus aureus; 21 h) | MIC (Staphylococcus aureus; ATCC25923, 21 h, No. 1, ATCC 25923) | MIC (Staphylococcus aureus; ATCC29213, 21 h, No. 5, ATCC 29213) | MIC (Staphylococcus epidermis) | MIC (Streptococcus faecalis) | MIC (Zanthomonas maltophilia)
